Drawing on patent publication US8916557B2, “Substituted 4-Aryl-N-phenyl-1,3,5-triazin-2-amines” (Bayer Intellectual Property GmbH, priority 2011, dated 2014), this text covers IC50 for 11 molecules.

The target in test [1] is T1, CDK2/CycE (Homo sapiens, UniProt P24941).
T1 construct: GST; purchased ProQinase GmbH (Freiburg, Germany); host or cells: insect cells (Sf9)
The test is described as follows: CDK2/CycE kinase assay (TR-FRET). The test is classed as biochemical. The settings on record: Method 2, 10 μM ATP. The essentials: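 GST-CDK2/GST-CycE (Sf9-expressed, ~130 ng/ml) pre-incubated with compound 15 min, then reacted 25 min at 22 °C with 10 μM ATP and 0.75 μM biotinylated peptide in Tris pH 8.0. Phospho-substrate detected by TR-FRET (anti-pRb pSer807/811, Eu/XL665), 665/620 nm ratio.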

Test [2] addresses T2, CDK9/CycT1 (Homo sapiens, UniProt P50750).
T2 construct: Recombinant full-length His-tagged human CDK9 and CycT1; His; purchased Invitrogen PV4131; host or cells: insect cells
The test is described as follows: CDK9/CycT1 kinase assay (TR-FRET). Type of test: biochemical. The settings on record: Method 1, 10 μM ATP. The essentials:
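Full-length His-tagged human CDK9/CycT1 (insect-cell expressed), 15 min compound pre-incubation, then 25 min at 22 °C with 10 µM ATP (final) and 1 µM biotinylated peptide (final) in Tris pH 8.0/MgCl2 buffer. Phospho-substrate detected by TR-FRET (anti-RB pSer807/pSer811, Eu anti-mouse IgG, streptavidin-XL665); 665/622 nm emission ratio as read-out.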
A general note: TR-FRET usually uses a lanthanide donor and a delayed reading to cut background.

For test [3], the system named is HeLa human cervical tumour cells. Kind of test: Proliferation assay (crystal violet), HeLa. The test is classed as cell-based. To be noted: read-out: Inhibition of HeLa cell proliferation.
Experimental: Cultivated tumour cells (NCI-H460, human non-small cell lung carcinoma cells, ATCC HTB-177; DU 145, hormone-independent human prostate carcinoma cells, ATCC HTB-81; HeLa-MaTu, human cervical carcinoma cells, EPO-GmbH, Berlin; HeLa-MaTu-ADR, multidrug-resistant human cervical carcinoma cells, EPO-GmbH, Berlin; HeLa human cervical tumour cells, ATCC CCL-2; Caco-2 human colorectal carcinoma, ATCC HTB-37; B16F10 mouse melanoma cells, ATCC CRL-6475) were plated at a density of 5000 cells/well (DU145, HeLa-MaTu-ADR), 3000 cells/well (NCI-H460, HeLa-MaTu, HeLa), 1500 cells/well (Caco-2), or 1000 cells/well (B16F10) in a 96-well multititer plate in 200 μL of their respective growth medium supplemented 10% fetal calf serum. After 24 hours, the cells of one plate (zero-point plate) were stained with crystal violet (see below), while the medium of the other plates was replaced by fresh culture medium (200 μl), to which the test substances were added in various concentrations (0 μM, as well as in the range of 0.001-10 μM; the final concentration of the solvent dimethyl sulfoxide was 0.5%). The cells were incubated for 4 days in the presence of test substances. Cell proliferation was determined by staining the cells with crystal violet: the cells were fixed by adding 20 μl/measuring point of an 11% glutaric aldehyde solution for 15 minutes at room temperature. After three washing cycles of the fixed cells with water, the plates were dried at room temperature. The cells were stained by adding 100 μl/measuring point of a 0.1% crystal violet solution (pH 3.0). After three washing cycles of the stained cells with water, the plates were dried at room temperature. The dye was dissolved by adding 100 μl/measuring point of a 10% acetic acid solution. The extinction was determined by photometry at a wavelength of 595 nm. The change of cell number, in percent, was calculated by normalization of the measured values to the extinction values of the zero-point plate (=0%) and the extinction of the untreated (0 μm) cells (=100%). The IC50 values were determined by means of a 4 parameter fit.

Each structure is given as a SMILES string. Some results are limits rather than exact numbers.

T2 sequence (P50750 whole entry): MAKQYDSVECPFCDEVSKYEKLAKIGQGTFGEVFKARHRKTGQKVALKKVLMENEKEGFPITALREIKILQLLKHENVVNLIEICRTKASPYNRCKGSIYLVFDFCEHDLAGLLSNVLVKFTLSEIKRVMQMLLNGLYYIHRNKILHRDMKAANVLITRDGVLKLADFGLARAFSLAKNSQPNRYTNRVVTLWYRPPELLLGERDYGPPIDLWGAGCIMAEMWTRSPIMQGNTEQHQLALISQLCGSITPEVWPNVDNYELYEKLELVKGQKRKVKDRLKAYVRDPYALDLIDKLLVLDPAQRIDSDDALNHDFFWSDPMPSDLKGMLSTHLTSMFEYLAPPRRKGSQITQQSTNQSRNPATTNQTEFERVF
T2 sequence (O60563 whole entry partner): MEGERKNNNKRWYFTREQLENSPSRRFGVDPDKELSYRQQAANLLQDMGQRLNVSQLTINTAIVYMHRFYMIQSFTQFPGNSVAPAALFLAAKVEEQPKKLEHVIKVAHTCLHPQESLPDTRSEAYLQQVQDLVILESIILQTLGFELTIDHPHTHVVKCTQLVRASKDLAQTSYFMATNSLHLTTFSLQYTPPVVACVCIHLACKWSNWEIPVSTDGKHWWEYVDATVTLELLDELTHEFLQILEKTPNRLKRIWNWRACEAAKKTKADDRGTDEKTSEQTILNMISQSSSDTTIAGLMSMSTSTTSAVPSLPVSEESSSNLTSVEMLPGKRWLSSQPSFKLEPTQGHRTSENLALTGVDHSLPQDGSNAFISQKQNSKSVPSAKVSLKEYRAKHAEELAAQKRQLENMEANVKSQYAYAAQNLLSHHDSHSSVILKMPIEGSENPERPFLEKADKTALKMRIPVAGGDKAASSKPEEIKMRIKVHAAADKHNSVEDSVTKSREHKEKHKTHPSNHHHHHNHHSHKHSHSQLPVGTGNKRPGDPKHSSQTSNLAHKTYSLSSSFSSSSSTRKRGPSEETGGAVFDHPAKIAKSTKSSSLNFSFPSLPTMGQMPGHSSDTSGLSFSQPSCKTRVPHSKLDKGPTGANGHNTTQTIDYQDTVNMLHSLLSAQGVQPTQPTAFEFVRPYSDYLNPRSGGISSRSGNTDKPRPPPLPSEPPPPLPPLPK

Consider `CS(=O)(=O)Cc1cccc(Nc2ncnc(-c3ccc(F)cc3OCc3ccccc3F)n2)c1` [Example 71, 4-{4-Fluoro-2-[(2-fluorobenzyl)oxy]phenyl}-N-{3-[(methylsulfonyl)-methyl]phenyl}-1,3,5-triazin-2-amine], for which the IC50 in test [1] stood at 2200 nM; in test [2], 12 nM; in test [3] it was 1170 nM.

Take `CC1(COc2cc(F)ccc2-c2ncnc(Nc3cccc(CS(C)(=O)=O)c3)n2)CC1` [Example 49, 4-{4-Fluoro-2-[(1-methylcyclopropyl)methoxy]phenyl}-N-{3-[(methylsulfonyl)-methyl]phenyl}-1,3,5-triazin-2-amine]: the IC50 in test [1] came to 640 nM; in test [2] it was 11 nM; in test [3], 1200 nM.

As to `CS(=O)(=O)Cc1cccc(Nc2ncnc(-c3ccc(F)cc3OCc3cccc(F)c3F)n2)c1` [Example 80, 4-{2-[(2,3-Difluorobenzyl)-oxy]-4-fluorophenyl}-N-{3-[(methylsulfonyl)-methyl]phenyl}-1,3,5-triazin-2-amine], the values for the IC50 in test [1], in test [2] and in test [3] were 2000 nM, 21 nM and 890 nM, respectively.

For `CS(=O)(=O)Cc1cccc(Nc2ncnc(-c3ccc(F)cc3OCCCF)n2)c1` [Example 54, 4-[4-Fluoro-2-(3-fluoropropoxy)phenyl]-N-{3-[(methylsulfonyl)methyl]phenyl}-1,3,5-triazin-2-amine], the figures for the IC50 in test [1], in test [2] and in test [3] were 1500 nM, 29 nM and 1300 nM, respectively.

With `Cc1ccc(COc2cc(F)ccc2-c2ncnc(Nc3cccc(CS(C)(=O)=O)c3)n2)cc1` [Example 77, 4-{4-Fluoro-2-[(4-methylbenzyl)oxy]phenyl}-N-{3-[(methylsulfonyl)-methyl]phenyl}-1,3,5-triazin-2-amine], the values for the IC50 in test [1], in test [2] and in test [3] were 1600 nM, 13 nM and 1000 nM, respectively.

Turning to `CS(=O)(=O)Cc1cccc(Nc2ncnc(-c3ccc(F)cc3OCc3ccc(C(F)(F)F)cc3)n2)c1` [Example 73, 4-(4-Fluoro-2-{[4-(trifluoromethyl)benzyl]-oxy}phenyl)-N-{3-[(methylsulfonyl)-methyl]phenyl}-1,3,5-triazin-2-amine], the IC50 in test [1] was at least 20000 nM; in test [2], 12 nM; in test [3] it was 1100 nM.

As to `[2H]C([2H])([2H])Oc1ccccc1-c1ncnc(Nc2cccc(CS(C)(=O)=O)c2)n1` [Example 22, 4-{2-[(^2H3)methyloxy]phenyl}-N-{3-[(methylsulfonyl)methyl]phenyl}-1,3,5-triazin-2-amine], the values for the IC50 in test [1], in test [2] and in test [3] were 2500 nM, 23 nM and 1400 nM, respectively.

As for `CC(C)COc1cc(F)ccc1-c1ncnc(Nc2cccc(CS(C)(=O)=O)c2)n1` [Example 58, 4-[4-Fluoro-2-(2-methylpropoxy)phenyl]-N-{3-[(methylsulfonyl)methyl]phenyl}-1,3,5-triazin-2-amine], the IC50 in test [1] was 5100 nM; in test [2] it was 46 nM; in test [3], 1700 nM.

As for `CC(C)CCCOc1cc(F)ccc1-c1ncnc(Nc2cccc(CS(C)(=O)=O)c2)n1` [Example 47, 4-{4-Fluoro-2-[(4-methylpentyl)oxy]phenyl}-N-{3-[(methylsulfonyl)-methyl]phenyl}-1,3,5-triazin-2-amine], the IC50 in test [1] amounted to 1200 nM; in test [2], 5 nM; in test [3] it was 1000 nM.

On to `C[C@@H](Oc1cc(F)ccc1-c1ncnc(Nc2cccc(CS(C)(=O)=O)c2)n1)c1ccccc1` [Example 79, 4-{4-Fluoro-2-[(1R)-1-phenylethoxy]phenyl}-N-{3-[(methylsulfonyl)methyl]phenyl}-1,3,5-triazin-2-amine], for which the IC50 is 440 nM in test [1], 3 nM in test [2] and 920 nM in test [3].

As for `CS(=O)(=O)Cc1cccc(Nc2ncnc(-c3ccc(F)cc3OCc3cccnc3)n2)c1` [Example 74, 4-[4-Fluoro-2-(pyridin-3-ylmethoxy)phenyl]-N-{3-[(methylsulfonyl)methyl]phenyl}-1,3,5-triazin-2-amine], the IC50 in test [1] was 570 nM; in test [2], 7 nM; in test [3], 1100 nM.
